Laboratory results reported in US7214689B2, “Isoquinoline compounds” (Les Laboratoires Servier, priority 2003, dated 2007).
Counter-ions that a name gives are not always drawn.

Legend:
MT1 receptor = MT1 receptor (Homo sapiens, UniProt P48039); test: Binding to melatonin receptor MT1 (2-[125I]-iodomelatonin); conditions: 2-[125I]-iodomelatonin radioligand, triplicate
Experimental: (§1) Study of Binding to Melatonin Receptors MT1 and MT2
(§2) The MT1 or MT2 receptor binding experiments are carried out using 2-[^125I]-iodomelatonin as reference radioligand. The radioactivity retained is determined using a liquid scintillation counter.
(§3) Competitive binding experiments are then carried out in triplicate using the various test compounds. A range of different concentrations is tested for each compound. The results enable the binding affinities (Ki) of the compounds tested to be determined.

Forced swimming test = type: in vivo; conditions: 40 minutes before the test
Experimental: The compounds of the invention are tested in a behavioural model, the forced swimming test.
The apparatus is a Plexiglas cylinder filled with water. The animals are tested individually for a session of 6 minutes. At the beginning of each test, the animal is placed in the centre of the cylinder. The period of immobility is recorded. Each animal is judged to be immobile when it ceases to struggle and remains immobile on the surface of the water only making movements that allow it to keep its head out of the water.
In particular, the compound of Example 9, administered at 2.5 mg/kg per os, causes the duration of immobility to be reduced from 102 seconds (control) to 57 seconds. The compound of Example 3, administered at 25 mg/kg per os, causes the duration of immobilisation to be reduced from 129 seconds (control) to 60 seconds.

MT2 receptor = target: T1, MT2 receptor (Homo sapiens, UniProt P49286); test: Binding to melatonin receptor MT2 (2-[125I]-iodomelatonin); conditions: 2-[125I]-iodomelatonin radioligand, triplicate
T1 sequence (P49286 1-362): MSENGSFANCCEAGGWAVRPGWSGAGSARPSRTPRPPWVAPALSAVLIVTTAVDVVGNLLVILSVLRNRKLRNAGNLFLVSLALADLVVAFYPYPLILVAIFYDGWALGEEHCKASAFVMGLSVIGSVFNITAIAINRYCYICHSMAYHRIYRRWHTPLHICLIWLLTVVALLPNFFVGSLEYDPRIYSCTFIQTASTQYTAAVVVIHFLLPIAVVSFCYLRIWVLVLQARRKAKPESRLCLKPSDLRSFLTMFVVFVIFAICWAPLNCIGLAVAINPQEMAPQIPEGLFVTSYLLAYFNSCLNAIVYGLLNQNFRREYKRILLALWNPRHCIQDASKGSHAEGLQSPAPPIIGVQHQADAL
Experimental: as §1, §2, §3

Chain of MT1 receptor (P48039 whole entry): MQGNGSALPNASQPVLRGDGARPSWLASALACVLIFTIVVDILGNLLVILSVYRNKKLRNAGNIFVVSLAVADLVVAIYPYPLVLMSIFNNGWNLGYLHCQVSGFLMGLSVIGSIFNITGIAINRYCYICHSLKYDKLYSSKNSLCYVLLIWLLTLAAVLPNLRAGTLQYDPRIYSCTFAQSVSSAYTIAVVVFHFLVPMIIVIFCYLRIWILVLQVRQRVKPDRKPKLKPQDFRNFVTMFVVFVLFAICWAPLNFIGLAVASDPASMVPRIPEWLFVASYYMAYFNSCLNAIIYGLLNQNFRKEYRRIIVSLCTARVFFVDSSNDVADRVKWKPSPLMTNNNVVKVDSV

| Ki (MT1 receptor) [nM] | Ki (MT2 receptor) [nM] | Compound | duration of immobility (Forced swimming test; 2.5 mg/kg per os, control 102 seconds) [s] | duration of immobilisation (Forced swimming test; 25 mg/kg per os, control 129 seconds) [s] |
| --- | --- | --- | --- | --- |
| 9.12 | 2.16 | COc1ccc2cncc(CCNC(C)=O)c2c1.Cl [Example 9, N-[2-(6-methoxy-4-isoquinolinyl)ethyl]acetamide hydrochloride] | 57 |  |
| 4.26 | 1.14 | CCC(=O)NCCc1cncc2ccc(OC)cc12 [Example 10, N-[2-(6methoxy-4-isoquinolinyl)ethyl]propanamide hydrochloride] |  |  |
| 3.8 | 2.6 | CNC(=O)CCCc1cncc2ccc(OC)cc12 [Example 3, 4-(6-methoxy-4-isoquinolinyl)-N-methylbutanamide] |  | 60 |
